What was measured:
[1] = target: T1, human PPARγ ligand-binding domain (Homo sapiens, UniProt P37231); experiment: PPARγ ligand activity, GAL4-hPPARγ luciferase reporter assay in CV-1 cells; assay type: cell-based; settings: for PPARγ ligand activity: luciferase activity relative to non-treatment control (DMSO) = 100, average ± standard error, n=4
T1 construct: expressed in transfected cells; host or cells: CV-1 cells (African green monkey kidney)
T1 sequence (P37231 204-505): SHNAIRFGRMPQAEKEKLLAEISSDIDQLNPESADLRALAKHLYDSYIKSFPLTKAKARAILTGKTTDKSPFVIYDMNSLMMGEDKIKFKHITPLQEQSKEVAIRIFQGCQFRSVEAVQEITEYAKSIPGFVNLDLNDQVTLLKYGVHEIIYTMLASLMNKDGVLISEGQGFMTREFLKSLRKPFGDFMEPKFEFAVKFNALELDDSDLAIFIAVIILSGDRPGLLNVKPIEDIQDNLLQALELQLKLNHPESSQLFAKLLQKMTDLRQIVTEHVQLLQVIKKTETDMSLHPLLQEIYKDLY
Description: First, CV-1 cells (cultured cells derived from kidneys of male African green monkeys) were inoculated on 24-well culture plates so as to be […] and cultured at 37° C. in 5% CO2 for 24 hours. As a medium, DMEM (Dulbecco's Modified Eagle Medium; available from GIBCO) containing 10% FBS (fetal bovine serum) and a 10 mg/ml penicillin streptomycin solution was used. Next, using the Lipofectamine system (Invitrogen Corporation), pM-hPPARγ and p4×UASg-tk-luc were transfected into the cultured CV-1 cells. The above-noted pM-hPPARγ was a vector for expressing fusion protein containing residues 1-147 of GAL4 binding domain and residues 204-505 of human PPARγ ligand-binding domain, and the above-noted p4×UASg-tk-luc was a reporter plasmid containing four copies of an upstream activating sequence (UAS) for GAL4 binding domain and a thymidine kinase gene promoter upstream of a luciferase gene. After the transfection, the cells were cultured for about 24 hours, and then, the media for the cells were changed to media containing nobiletin at respective concentrations (0.1, 1.0, and 50 μM) or media for non-treatment control, followed by an additional 24 hour culture. The above-noted media containing nobiletin were prepared by adding nobiletin dissolved in dimethyl sulfoxide (DMSO) to the media, whereas the media for non-treatment control were prepared by adding only DMSO to the media. After the culture, the cells were lysed and the measurement of luciferase activity was performed using a Dual-Luciferase
Reporter Gene Assay system (available from Promega Corporation) (Measurement Group).
Similarly to the measurement group, as a control group, the measurement of luciferase activity was performed using pM (a vector containing residues 1-147 of GAL4 binding domain and not containing residues 204-505 of PPARγ ligand-binding domain in pM-hPPARγ) instead of the pM-hPPARγ. For each sample, the ratio between average luminescence intensities of the measurement group and the control group (n=4) (measurement group/control group) was calculated, and the luciferase activity relative to the non-treatment control was determined as the PPARγ ligand-binding activity of the sample.

[2] = tested on: spontaneously diabetic mice (KK-A^y); experiment: adiponectin secretion amount in serum of spontaneously diabetic mice (KK-Ay), ELISA; assay type: in vivo
Description: The present example verified the diabetes relieving-effect of nobiletin through an experiment using spontaneously diabetic mice (KK-A^y).
First, twelve spontaneously diabetic mice (6-week old, female) were fed preliminarily with normal diet for one week. Next, the mice were divided into two groups, namely, a control group and a NOB group (n=6) such that the average weights of these two groups were the same. Then, the mice of the control group were fed with high-fat diet only, whereas the mice of the NOB group were fed with high-fat diet containing 0.02% nobiletin. 27 days or 28 days after the initiation of feeding, serum was collected from these mice. […]
Only the strips of the antibody plates necessary for the analysis were taken out. […] Thereafter, 100 μl of the standard solutions with respective concentrations and 100 μl of the diluted specimen solutions were added to the individual wells and measured in duplicate. Note here that the standard solutions always were measured for each measurement and each plate. […] After 100 μl of the substrate solution was added to each well of the antibody plate and allowed to stand still for reaction for 15 minutes at room temperature, 100 μl of the reaction stop solution was added to each well of the antibody plate, and then the absorbance at 450 nm in each well was measured with a plate reader. […]

[3] = tested on: adiponectin mRNA in 3T3-L1; experiment: adiponectin mRNA expression in differentiating 3T3-L1 preadipocytes (Light Cycler, ratio to 36B4); assay type: cell-based; settings: for Adiponectin mRNA expression amount (ratio to 36B4): 3T3-L1, 7 days after differentiation induction, non-treatment control = 100, average ± standard error
Description: (§1) (Differentiation Induction of Preadipocyte)
(§2) 1. Differentiation Induction Medium (0.25 μM DEX, 0.5 mM MIX, 10 μg/ml insulin/10% FBS/DMEM)
(§3) 55 ml of FBS (fetal bovine serum (available from GIBCO)) was added to 500 ml of DMEM (available from SIGMA) so as to prepare 10% FBS/DMEM. To this 10% FBS/DMEM, 138.75 μl of 1 mM DEX (dexamethasone)/DMSO (available from Nacalai Tesque, Inc.) and 555 μl of 10 mg/ml insulin/PBS (available from SIGMA) were added. Note here that the insulin/PBS was obtained by adding 1 N HCl to PBS in advance so as to make the solution acidic enough to allow insulin dissolution and then dissolving insulin. MIX (3-isobutyl-1-methylxanthine) (available from Nacalai Tesque, Inc.) was added to a necessary amount of the above-described medium immediately before use in such a manner as to achieve 0.5 mM concentration, thereby preparing a differentiation induction medium. Since MIX was very difficult to dissolve, it first was dissolved in a small amount of 99.5% ethanol and then added to 10% FBS/DMEM.
2. Differentiation Promotion Medium (5 μg/ml Insulin/10% FBS/DMEM)
A differentiation promotion medium was prepared by adding 277.5 μl of 10 mg/ml insulin/PBS to 555 ml of 10% FBS/DMEM.
Next, cultured preadipocytes 3T3-L1 were thawed, inoculated in a 100 mm dish and cultured until the 3T3-L1 cells reached about 80% confluence. A single dish of 3T3-L1 that had reached about 80% confluence was subcultured to a single 6-well plate and further cultured until the 3T3-L1 cells reached confluence in the 6-well plate, and then the medium was replaced with the differentiation induction medium, followed by differentiation induction. 48 hours later, the medium was replaced with the differentiation promotion medium, and thereafter, the medium was replaced with the differentiation promotion medium every two days. 7 days after the initiation of the differentiation induction, mRNA was extracted using a Sepasol-RNA I Super (trade name; available from Nacalai Tesque, Inc.), and the mRNA expression amounts of 36B4, aP2 and adiponectin, which were indicators of an early period of adipocyte differentiation, were measured using a Light Cycler™.
(§4) The medium was removed from the above-described Swell plate, 1 ml of Sepasol-RNA I Super (available from Nacalai Tesque, Inc.) was added to each well, and pipetting was repeated several times so as to disperse the cells. […] The resultant precipitate (total RNA) was dried and then dissolved in 20 μl of nuclease free water, and the concentration of mRNA was measured using Nanoprop (available from SCRUM Inc.).
(§5) The extracted and measured mRNA solution was adjusted to have an mRNA concentration of 1 μg/μl. […]

aP2 mRNA in 3T3-L1 = experiment: aP2 mRNA expression in differentiating 3T3-L1 preadipocytes (Light Cycler, ratio to 36B4); assay type: cell-based; settings: 3T3-L1, 7 days after differentiation induction, non-treatment control = 100, average ± standard error
Description: as §1, §2, §3
2. Differentiation Promotion Medium (5 μg/ml Insulin/10% FBS/DMEM) […]
Next, cultured preadipocytes 3T3-L1 were thawed, inoculated in a 100 mm dish and cultured until the 3T3-L1 cells reached about 80% confluence. […] 7 days after the initiation of the differentiation induction, mRNA was extracted using a Sepasol-RNA I Super (trade name; available from Nacalai Tesque, Inc.), and the mRNA expression amounts of 36B4, aP2 and adiponectin, which were indicators of an early period of adipocyte differentiation, were measured using a Light Cycler™.
as §4, §5

PPARγ ligand activity ([1]; 0.1 μM): 96.5 ± 10.8
PPARγ ligand activity ([1]; 1.0 μM): 156.8 ± 11.3
PPARγ ligand activity ([1]; 10 μM): 200.5 ± 55.1
PPARγ ligand activity ([1]; 50 μM): 246 ± 41.7
SMILES: COc1ccc(-c2cc(=O)c3c(OC)c(OC)c(OC)c(OC)c3o2)cc1OC [nobiletin]
PPARγ activity, result in words ([1]; 0.1-50 μM, versus non-treatment control): increased significantly in keeping with the concentration of nobiletin
Adiponectin secretion amount ([2]; KK-Ay mice, high-fat diet containing 0.02% nobiletin, serum 27 or 28 days after initiation of feeding, average ± standard error, n=6, control group 4.78 ± 0.096): 7.18 ± 0.50
adiponectin secretion amount, result in words ([2]; diabetic mice of NOB group versus control group): increase the adiponectin secretion amount in the adipocytes significantly
Adiponectin mRNA expression amount (ratio to 36B4) ([3]; 5 μM): 265.1 ± 60.4
Adiponectin mRNA expression amount (ratio to 36B4) ([3]; 10 μM): 352.3 ± 28.5
Adiponectin mRNA expression amount (ratio to 36B4) ([3]; 1 μm): 164.9 ± 18.7
secretion of adiponectin in adipocytes, result in words ([3]; 3T3-L1 cultured with nobiletin versus non-treated control medium): enhance the secretion of adiponectin in the adipocytes significantly
aP2 mRNA expression amount (ratio to 36B4) (aP2 mRNA in 3T3-L1; 5 μM): 193.7 ± 41.4
aP2 mRNA expression amount (ratio to 36B4) (aP2 mRNA in 3T3-L1; 10 μM): 273.1 ± 13.8
aP2 mRNA expression amount (ratio to 36B4) (aP2 mRNA in 3T3-L1; 1 μm): 155.8 ± 21.7

Source: US20070213282A1, “Peroxisome proliferator-activated receptor (PPAR) activator, and drugs, supplements, functional foods and food additives using the same” (ARKRAY, Inc., priority 2004, published 2007)
